Experimental data from patent publication US12325697B2 (Nimbus Clio, Inc., priority 2021, dated 2025).
Read-outs that look alike come from different tables or passages of the source.

Key:
[1] = system: Phospho-Zap70 (Y-319) in Jurkat wild-type (clone E6-1) cells; test: Jurkat pZAP70 HTRF Assay; assay type: cell-based; conditions: Homo sapiens
[2] = system: Jurkat (clone E6-1) cells, NFAT luciferase reporter; test: Jurkat Reporter Assay (NFAT Luciferase); assay type: cell-based; conditions: Homo sapiens
[3] = target: Recombinant human Cbl-b (aa 36-427) (Homo sapiens (Human), UniProt Q13191); test: Cbl-b Biochemical Assay (TR-FRET); conditions: read-out: TR-FRET hCbl-b IC50
In short: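 IC50 from 4-parameter fit of % inhibition (DMSO max, reference-inhibitor min), duplicate ten-point series. Compound preincubated with 6 nM Cbl-b, then Src-Zap70 (1-2.5 nM)/0.5 mM ATP reaction 60 min RT; EDTA quench with labelled UBE2D2-Ub and streptavidin-terbium, 60 min, HTRF at 520 nm.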

[4] = anti-CD3 5 μg/ml, 3 hr, read-out: ZAP70 Jurkat EC50
[5] = anti-CD3 stimulation, 6 hr, read-out: Jurkat NFAT EC50

Chain of Recombinant human Cbl-b (aa 36-427) (Q13191 36-427): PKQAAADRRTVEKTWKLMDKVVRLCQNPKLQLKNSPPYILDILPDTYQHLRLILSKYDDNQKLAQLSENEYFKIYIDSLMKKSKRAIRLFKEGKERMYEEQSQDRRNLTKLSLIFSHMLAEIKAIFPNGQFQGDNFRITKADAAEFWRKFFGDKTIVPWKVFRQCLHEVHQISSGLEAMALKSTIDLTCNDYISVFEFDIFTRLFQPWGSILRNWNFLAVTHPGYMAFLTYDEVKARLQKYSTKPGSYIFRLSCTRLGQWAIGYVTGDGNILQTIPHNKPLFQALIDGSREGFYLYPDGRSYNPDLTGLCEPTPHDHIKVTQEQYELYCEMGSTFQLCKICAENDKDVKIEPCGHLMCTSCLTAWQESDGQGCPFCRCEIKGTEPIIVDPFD

Row | Structure (SMILES) | EC50 [1, 4] | EC50 [2, 5] | IC50 [3] | EC50 ([1]; 3 h, read-out: ZAP70 Jurkat EC50 (μM)) | EC50 ([2]; 6 h, read-out: Jurkat NFAT EC50 (μM))
1 | Cn1cnnc1-c1cnn(C)c1-c1cccc(N2Cc3c(cc(CN[C@@H]4CCC[C@@H]4O)cc3C(F)(F)F)C2=O)c1 [ADO-2, 6-({[(1R,2S)-2-Hydroxycyclopentyl]amino}methyl)-2-{3-[2-methyl-4-(4-methyl-1,2,4-triazol-3-yl)pyrazol-3-yl]phenyl}-4-(trifluoromethyl)-3H-isoindol-1-one] | < 0.2 µM | < 0.2 µM | ≤ 200 nM | – | –
2 | CCNc1cc(-c2ccc(C#N)cc2-c2nncn2C)cc(N2Cc3c(cccc3C(F)(F)F)C2=O)n1 [ADP-8, 4-[2-(Ethylamino)-6-[1-oxo-4-(trifluoromethyl)-3H-isoindol-2-yl]pyridin-4-yl]-3-(4-methyl-1,2,4-triazol-3-yl)benzonitrile] | 1 to 10 µM | < 0.2 µM | ≤ 200 nM | – | –
3 | C[C@H]1CCCN(Cc2cc3c(c(C(F)(F)F)c2)CN(c2cccc(-c4ccc(C#N)cc4-c4nncn4C)c2)C3=O)C1 [ADQ-2, 2-(4-methyl-1,2,4-triazol-3-yl)-3′-(6-{[(3S)-3-methylpiperidin-1-yl]methyl}-1-oxo-4-(trifluoromethyl)-3H-isoindol-2-yl)-[1,1′-biphenyl]-4-carbonitrile] | < 0.2 µM | < 0.2 µM | ≤ 200 nM | – | –
4 | Cn1cnnc1-c1cnn(C)c1-c1cc(C2CC2)nc(N2Cc3c(cc(CNCC4(O)CCC4)cc3C(F)(F)F)C2=O)c1 [ADR-3] | < 0.2 µM | < 0.2 µM | ≤ 200 nM | – | –
5 | CCNc1cc(-c2ccc(C#N)cc2-c2nncn2C)cc(N2Cc3c(cc(CN4CCC[C@H](C)C4)cc3C(F)(F)F)C2=O)n1 [ADT-2, 4-[2-(Ethylamino)-6-(6-{[(3S)-3-methylpiperidin-1-yl]methyl}-1-oxo-4-(trifluoromethyl)-3H-isoindol-2-yl)pyridin-4-yl]-3-(4-methyl-1,2,4-triazol-3-yl)benzonitrile] | < 0.2 µM | < 0.2 µM | ≤ 200 nM | – | –
6 | CCNc1cc(-c2ccc(C#N)cc2-c2nncn2C)cc(N2Cc3c(cc(CN4CCC[C@@H](C)C4)cc3C(F)(F)F)C2=O)n1 [ADU-2, 4-[2-(Ethylamino)-6-(6-{[(3R)-3-methylpiperidin-1-yl]methyl}-1-oxo-4-(trifluoromethyl)-3H-isoindol-2-yl)pyridin-4-yl]-3-(4-methyl-1,2,4-triazol-3-yl) benzonitrile] | – | – | ≤ 200 nM | 0.2 to 1 µM | < 0.2 µM
7 | Cn1cnnc1-c1cc(C#N)ccc1-c1cccc(N2Cc3c(cc(CNCC4(O)CCC4)cc3C(F)(F)F)C2=O)c1 [ADV-1, 3′-[6-({[(1-Hydroxycyclobutyl)methyl]amino}methyl)-1-oxo-4-(trifluoromethyl)-3H-isoindol-2-yl]-2-(4-methyl-1,2,4-triazol-3-yl)-[1,1′-biphenyl]-4-carbonitrile] | < 0.2 µM | < 0.2 µM | ≤ 200 nM | – | –
8 | CCNc1cc(-c2ccc(C#N)cc2-c2nncn2C)cc(N2Cc3c(cc(CO)cc3C(F)(F)F)C2=O)n1 [ADX-2, 4-[2-(Ethylamino)-6-[6-(hydroxymethyl)-1-oxo-4-(trifluoromethyl)-3H-isoindol-2-yl]pyridin-4-yl]-3-(4-methyl-1,2,4-triazol-3-yl) benzonitrile] | 0.2 to 1 µM | < 0.2 µM | ≤ 200 nM | – | –
9 | Cn1cnnc1-c1ccccc1-c1cc(C2CC2)nc(N2Cc3c(cc(CNCC4(O)CCC4)cc3C(F)(F)F)C2=O)c1 [ADZ-2, 2-{6-Cyclopropyl-4-[2-(4-methyl-1,2,4-triazol-3-yl)phenyl]pyridin-2-yl}-6-({[(1-hydroxycyclobutyl)methyl]amino}methyl)-4-(trifluoromethyl)-3H-isoindol-1-one] | < 0.2 µM | < 0.2 µM | ≤ 200 nM | – | –
10 | COCCNCc1cc2c(c(C(F)(F)F)c1)CN(c1cccc(-c3ccc(C#N)cc3-c3nncn3C)c1)C2=O [AEB-2, 3′-(6-(((2-Methoxyethyl)amino)methyl)-1-oxo-4-(trifluoromethyl)isoindolin-2-yl)-2-(4-methyl-4H-1,2,4-triazol-3-yl)-[1,1′-biphenyl]-4-carbonitrile] | < 0.2 µM | < 0.2 µM | ≤ 200 nM | – | –
11 | CCNc1cc(-c2ccc(C#N)cc2-c2nncn2C)cc(N2Cc3c(cc(CNCCOC)cc3C(F)(F)F)C2=O)n1 [AEC-2, 4-[2-(Ethylamino)-6-(6-{[(2-methoxyethyl)amino]methyl}-1-oxo-4-(trifluoromethyl)-3H-isoindol-2-yl)pyridin-4-yl]-3-(4-methyl-1,2,4-triazol-3-yl)benzonitrile] | < 0.2 µM | < 0.2 µM | ≤ 200 nM | – | –
12 | CCNc1cc(-c2c(-c3nncn3C)cnn2C)cc(N2Cc3c(cc(COCC4(O)CCC4)cc3C(F)(F)F)C2=O)n1 [AED-2, 2-[6-(Ethylamino)-4-[2-methyl-4-(4-methyl-1,2,4-triazol-3-yl)pyrazol-3-yl]pyridin-2-yl]-6-{[(1-hydroxycyclobutyl)methoxy]methyl}-4-(trifluoromethyl)-3H-isoindol-1-one] | 0.2 to 1 µM | < 0.2 µM | ≤ 200 nM | – | –
13 | CCNc1cc(-c2ccc(F)cc2-c2nncn2C)cc(N2Cc3c(cc(CO)cc3C(F)(F)F)C2=O)n1 [AEF-1, 2-(6-(Ethylamino)-4-(4-fluoro-2-(4-methyl-4H-1,2,4-triazol-3-yl)phenyl)pyridin-2-yl)-6-(hydroxymethyl)-4-(trifluoromethyl)isoindolin-1-one] | < 0.2 µM | < 0.2 µM | ≤ 200 nM | – | –
14 | Cn1cnnc1-c1ccccc1-c1cc(C2CC2)nc(N2Cc3ccc(CNCC4(O)CCC4)cc3C2=O)c1 [AEH-1, 2-{6-Cyclopropyl-4-[2-(4-methyl-1,2,4-triazol-3-yl)phenyl]pyridin-2-yl}-6-({[(1-hydroxycyclobutyl)methyl]amino}methyl)-3H-isoindol-1-one] | < 0.2 µM | < 0.2 µM | ≤ 200 nM | – | –
15 | Cn1cnnc1-c1ccccc1-c1cc(C2CC2)nc(N2Cc3cc(F)c(CNCC4(O)CCC4)cc3C2=O)c1 [AEI-5, 2-{6-Cyclopropyl-4-[2-(4-methyl-1,2,4-triazol-3-yl)phenyl]pyridin-2-yl}-5-fluoro-6-({[(1-hydroxycyclobutyl)methyl]amino}methyl)-3H-isoindol-1-one] | < 0.2 µM | < 0.2 µM | ≤ 200 nM | – | –
16 | CCNc1cc(-c2c(-c3nncn3C)cnn2C)cc(N2Cc3c(cc(CN(C)CC4(O)CCC4)cc3C(F)(F)F)C2=O)n1 [AEJ-3, 2-(6-(Ethylamino)-4-(1-methyl-4-(4-methyl-4H-1,2,4-triazol-3-yl)-1H-pyrazol-5-yl)pyridin-2-yl)-6-((((1-hydroxycyclobutyl)methyl)(methyl)amino)methyl)-4-(trifluoromethyl)isoindolin-1-one] | < 0.2 µM | < 0.2 µM | ≤ 200 nM | – | –
17 | CCNc1cc(-c2ccc(C#N)cc2-c2nncn2C)cc(N2Cc3c(cc(CN[C@@H]4CCC[C@@H]4O)cc3C(F)(F)F)C2=O)n1 [AEL-2, 4-[2-(Ethylamino)-6-[6-({[(1R,2S)-2-hydroxycyclopentyl]amino}methyl)-1-oxo-4-(trifluoromethyl)-3H-isoindol-2-yl]pyridin-4-yl]-3-(4-methyl-1,2,4-triazol-3-yl) benzonitrile] | < 0.2 µM | < 0.2 µM | ≤ 200 nM | – | –
18 | COc1cc2c(cc1CNCC1(O)CCC1)C(=O)N(c1cc(-c3ccccc3-c3nncn3C)cc(C3CC3)n1)C2 [AEM-9, 2-(6-Cyclopropyl-4-(2-(4-methyl-4H-1,2,4-triazol-3-yl)phenyl)pyridin-2-yl)-6-((((1-hydroxycyclobutyl)methyl)amino)methyl)-5-methoxyisoindolin-1-one] | < 0.2 µM | < 0.2 µM | ≤ 200 nM | – | –
19 | COCCNCc1cc2c(c(C(F)(F)F)c1)CN(c1cc(-c3ccc(C#N)cc3-c3nncn3C)cc(C3CC3)n1)C2=O [AEN-1, 4-[2-Cyclopropyl-6-(6-{[(2-methoxyethyl)amino]methyl}-1-oxo-4-(trifluoromethyl)-3H-isoindol-2-yl)pyridin-4-yl]-3-(4-methyl-1,2,4-triazol-3-yl)benzonitrile] | < 0.2 µM | < 0.2 µM | ≤ 200 nM | – | –
20 | Cn1cnnc1-c1cc(C#N)ccc1-c1cc(C2CC2)nc(N2Cc3c(cc(CNCCO)cc3C(F)(F)F)C2=O)c1 [AEO-2, 4-[2-Cyclopropyl-6-(6-{[(2-hydroxyethyl)amino]methyl}-1-oxo-4-(trifluoromethyl)-3H-isoindol-2-yl)pyridin-4-yl]-3-(4-methyl-1,2,4-triazol-3-yl) benzonitrile] | < 0.2 µM | < 0.2 µM | ≤ 200 nM | – | –
21 | CCNc1cc(-c2c(-c3nncn3C)cnn2C)cc(N2Cc3c(cc(CNCC4(OC)CCC4)cc3C(F)(F)F)C2=O)n1 [AEQ-3, 2-[6-(Ethylamino)-4-[2-methyl-4-(4-methyl-1,2,4-triazol-3-yl)pyrazol-3-yl]pyridin-2-yl]-6-({[(1-methoxycyclobutyl)methyl]amino}methyl)-4-(trifluoromethyl)-3H-isoindol-1-one] | < 0.2 µM | < 0.2 µM | ≤ 200 nM | – | –
22 | Cn1cnnc1-c1cc(C#N)ccc1-c1cc(C2CC2)nc(N2Cc3c(cc(CO)cc3C(F)(F)F)C2=O)c1 [AES-1, 4-(2-Cyclopropyl-6-(6-(hydroxymethyl)-1-oxo-4-(trifluoromethyl)isoindolin-2-yl)pyridin-4-yl)-3-(4-methyl-4H-1,2,4-triazol-3-yl)benzonitrile] | 0.2 to 1 µM | < 0.2 µM | ≤ 200 nM | – | –
